Test results from patent US20240425491A1, “HETEROARYL COMPOUNDS USEFUL IN THE TREATMENT OF COGNITIVE DISORDERS” (University College Cardiff Consultants Limited, priority 2021, published 2024).

What was measured:
[1] = target: T1, human recombinant GABAAR containing α5β3γ2 subunits (benzodiazepine site) (Homo sapiens, UniProt P18507+P31644); assay: In vitro radioligand binding assay (α5-GABAAR Ki); settings: inhibition of [3H]Ro15-1788 binding, membranes of L(tk−) cells expressing human α5β3γ2; read-out: α5-GABAAR Ki
T1 construct: expressed in transfected cells; host or cells: mouse L(tk−) cells, dexamethasone-inducible vector pMSGneo
T1 sequence (P31644 32-462): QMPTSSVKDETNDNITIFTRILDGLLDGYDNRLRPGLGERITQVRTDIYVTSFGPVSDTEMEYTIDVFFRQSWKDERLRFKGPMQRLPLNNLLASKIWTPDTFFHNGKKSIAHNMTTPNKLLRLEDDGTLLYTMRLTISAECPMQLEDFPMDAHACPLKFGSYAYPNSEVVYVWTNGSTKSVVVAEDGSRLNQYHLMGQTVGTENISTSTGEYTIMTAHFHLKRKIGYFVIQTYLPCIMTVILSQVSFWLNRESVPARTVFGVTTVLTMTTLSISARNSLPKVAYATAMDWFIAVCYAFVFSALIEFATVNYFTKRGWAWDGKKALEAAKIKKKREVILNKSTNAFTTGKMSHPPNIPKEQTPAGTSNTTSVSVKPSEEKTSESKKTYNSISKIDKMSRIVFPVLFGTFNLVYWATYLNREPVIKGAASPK
T1 sequence (P28472 26-473 partner): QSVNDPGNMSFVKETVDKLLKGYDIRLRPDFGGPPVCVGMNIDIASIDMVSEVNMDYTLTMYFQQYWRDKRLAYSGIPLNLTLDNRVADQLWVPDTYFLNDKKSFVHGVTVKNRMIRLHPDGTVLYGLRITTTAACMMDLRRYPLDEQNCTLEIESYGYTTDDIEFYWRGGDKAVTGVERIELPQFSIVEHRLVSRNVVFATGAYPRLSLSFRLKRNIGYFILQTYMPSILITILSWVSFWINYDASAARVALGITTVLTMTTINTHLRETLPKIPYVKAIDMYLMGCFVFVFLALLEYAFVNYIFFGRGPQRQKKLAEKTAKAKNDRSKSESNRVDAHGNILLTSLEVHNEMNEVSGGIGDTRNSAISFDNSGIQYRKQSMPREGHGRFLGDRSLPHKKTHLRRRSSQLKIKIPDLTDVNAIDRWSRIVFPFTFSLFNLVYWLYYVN
T1 sequence (P18507 40-475): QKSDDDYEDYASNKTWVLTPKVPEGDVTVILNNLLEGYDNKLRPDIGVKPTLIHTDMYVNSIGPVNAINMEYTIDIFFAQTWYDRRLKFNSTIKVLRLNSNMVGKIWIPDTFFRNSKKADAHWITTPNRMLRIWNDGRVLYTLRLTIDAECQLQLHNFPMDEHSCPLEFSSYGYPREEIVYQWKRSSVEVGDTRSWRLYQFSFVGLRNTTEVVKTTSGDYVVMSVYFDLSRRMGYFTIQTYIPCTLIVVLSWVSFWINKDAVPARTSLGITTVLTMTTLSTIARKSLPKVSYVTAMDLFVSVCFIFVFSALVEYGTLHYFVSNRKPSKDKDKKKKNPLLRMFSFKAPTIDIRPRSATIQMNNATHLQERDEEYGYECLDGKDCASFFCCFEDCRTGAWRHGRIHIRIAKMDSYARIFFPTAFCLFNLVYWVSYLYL
Procedure, shortened: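 Displacement of 4 nM [^3H]flumazenil from the benzodiazepine site, read by filtration and scintillation, gave IC50, converted to Ki (Cheng-Prusoff, saturation-derived Kd). Receptor: human α5β3γ2 membranes from L(tk^−) cells, 50 μg protein/well; 1 h, 4° C; TP003 1 μM defined nonspecific binding.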

[2] = target: T2, human α5β3γ2 GABAARs in mouse L(tk−) cells (Homo sapiens, UniProt P18507+P31644); assay: In vitro electrophysiological recording assay (α5-GABAAR relative efficacy), QPatch; format: cell-based; settings: GABA EC10-20
T2 construct: expressed in transfected cells; host or cells: mouse L(tk−) cells, dexamethasone-inducible vector pMSGneo
T2 sequence (P31644 32-462): as the sequence (P31644 32-462) above
T2 sequence (P28472 26-473 partner): as the sequence (P28472 26-473 partner) above
T2 sequence (P18507 40-475): as the sequence (P18507 40-475) above
From the text: Mouse L(tk^−) cells stably expressing human α1β3γ2, α2β3γ2, α3β3γ2, α5β3γ2 GABAARs generated by transfection of the individual subunits in the dexamethasone-inducible expression vector pMSGneo in mouse L(tk^−) cells (Hadingham et al., 1993, Mol. Pharmacol. 43:970-975 and 1993, Mol. Pharmacol. 44:1211-1218) were used for binding and functional assays. For certain compounds, HEK293 cells stable expressing the human α1β3γ2L, α2β3γ2L, α3β3γ2L and α5β3γ2L GABAA receptors were used to evaluate their functional effects in a SyncroPatch electrophysiology assay.
For QPatch electrophysiology testing, 1 μM dexamethasone was added to the culture medium of L(tk^−) cells 24 hours before the recordings were performed. Cells were typically used for electrophysiology experiments 72-96 hours after splitting.
The efficacy of modulators was evaluated using either the automated patch-clamp platform QPatch16 (Sophion, Copenhagen, Denmark) or the SyncroPatch 384i (Nanion Technologies, Germany). Cells were harvested from flasks by enzymatic dissociation and re-suspended in serum-free medium.
For QPatch recordings, all experiments were carried out at room temperature (20-22° C.) using a standard whole cell procedure and physiological solutions. Gigaseals were formed upon execution of a combined suction/voltage protocol with subsequent increased suction leading to the whole-cell configuration. The currents recorded were acquired at 1 KHz and filtered at 0.3 KHz using a Bessel filter. Whole-cell currents were measured at a holding potential of −65 mV.
For QPatch recordings, the extracellular solution contained of (in mM): 145 NaCl, 4 KCl, 1 MgCl2, 2CaCl2, 10 HEPES, 10 D-glucose (pH 7.4), and the intracellular solution consisted of (in mM): 96 KCl, 28 CsCl, 25 KOH, 4.3 CaCl2), 1.4 MgCl2, 10 EGTA, HEPES, 3 MgATP (pH 7.2). The osmolarities of the extracellular and intracellular solutions were 305 and 295 mOsm respectively.
The effects of modulators were evaluated in the presence of a submaximal GABA concentration, giving typically 10-20% activation (GABA EC10-20) of the response elicited by a saturating GABA concentration. For QPatch recordings, to check and ensure baseline current stability before compound addition, five consecutive applications of GABA EC10-20 alone (each application with a 2 s duration, separated by minimum 1 min wash off periods) were performed before compound addition. The test compound was applied using the pipetting system of the QPatch system 1 min at least prior to co-application with GABA EC10-20. For SyncroPatch recordings, GABA EC20 alone was applied three times (1 s long applications, with wash steps in-between) before compound addition. This was followed by a 1-2 min pre-incubation with the test compound and then re-application of GABA EC10-20 in the presence of the compound. Finally, following a further wash step, a saturating concentration of GABA was applied, allowing the accurate evaluation for each cell of the percentage baseline activation elicited by the submaximal GABA applied.
The compounds were first dissolved in DMSO as a 10 mM stock and then further diluted to the testing concentrations so that the final DMSO concentration in the extracellular recording solution was kept constant at 0.1% for the QPatch recordings, or 0.2% for the SyncroPatch recordings.
The % efficacy of modulators was determined from the GABA elicited currents recorded in the presence and absence of the test compound, using the formula:
[((compound peak current−leak)−(GABA peak current−leak))/(GABA peak current−leak)]*100,
where ‘leak’ is the leak baseline current at −65 mV, ‘compound peak current’ is the current elicited by co-application of compound and GABA, and ‘GABA peak current’ is the current elicited by GABA alone during the 5th GABA application. The results were presented as ‘relative efficacy’ for each compound generally at a concentration equal or higher than 100 times their determined Ki. […]

Row | Ki [1] | α5-GABAAR Relative Efficacy (to DMCM), Qpatch ([2]; Conc 0.3 μM) | α5-GABAAR Relative Efficacy (to DMCM), Qpatch ([2]; Conc 1 μM) | SMILES | further results
1 | 1.9 nM | −0.52 |  | COc1nc(-c2ccc3nncn3c2)ccc1NC(=O)c1c(-c2ccccc2)noc1C [Example 96, N-(6-([1,2,4] Triazolo[4,3-a]pyridin-6-yl)-2-methoxypyridin-3-yl)-5-methyl-3-phenylisoxazole-4-carboxamide] | 
2 | 31 nM |  |  | CNc1ncc(-c2ccc(NC(=O)c3c(C)nnn3-c3ccccc3)c(OC)n2)cn1 [Example 166, N-(2-Methoxy-6-(2-(methylamino)pyrimidin-5-yl)pyridin-3-yl)-4-methyl-1-phenyl-1H-1,2,3-triazole-5-carboxamide] | α5-GABAAR Relative Efficacy (to DMCM), Qpatch ([2]; Conc 3 μM): −0.98
3 | 61.5 nM |  |  | COc1nc(-c2cnc(CN(C)C)nc2)ccc1NC(=O)c1c(C)nnn1-c1ccccc1 [Example 161, N-(6-(2-((Dimethylamino)methyl)pyrimidin-5-yl)-2-methoxypyridin-3-yl)-4-methyl-1-phenyl-1H-1,2,3-triazole-5-carboxamide] | α5-GABAAR Relative Efficacy (to DMCM), Qpatch ([2]; Conc 10 μM): −0.71
4 | 9.6 nM |  | −0.74 | COc1nc(-c2cccc3nc(N)nn23)ccc1NC(=O)c1c(-c2ccccc2)noc1C [Example 50, N-[6-(2-Amino-[1,2,4]triazolo[1,5-a]pyridin-5-yl)-2-methoxy-3-pyridyl]-5-methyl-3-phenyl-isoxazole-4-carboxamide] | 
5 | 7.4 nM |  | −0.55 | COc1nc(-c2nccnc2N)ccc1NC(=O)c1c(-c2ccccc2)noc1C [Example 54, N-[6-(3-Aminopyrazin-2-yl)-2-methoxy-3-pyridyl]-5-methyl-3-phenyl-isoxazole-4-carboxamide] | 
6 | 1.7 nM | −0.68 |  | COc1nc(-c2ccnnc2)ccc1NC(=O)c1c(-c2ccccc2)noc1C [Example 104, N-(2-Methoxy-6-(pyridazin-4-yl)pyridin-3-yl)-5-methyl-3-phenylisoxazole-4-carboxamide] | 
7 | 13.9 nM |  |  | COc1nc(-c2cn(C)nc2C)ccc1NC(=O)c1c(-c2ccccc2)noc1C [Example 20, N-[6-(1,3-Dimethylpyrazol-4-yl)-2-methoxy-3-pyridyl]-5-methyl-3-phenyl-isoxazole-4-carboxamide] | α5-GABAAR Relative Efficacy (to DMCM), Qpatch ([2]; Conc 3 μM): −0.28
8 | 11.4 nM |  |  | COc1nc(-c2cnc3c(c2)OCO3)ccc1NC(=O)c1c(-c2ccccc2)noc1C [Example 106, N-(6-([1,3] Dioxolo[4,5-b]pyridin-6-yl)-2-methoxypyridin-3-yl)-5-methyl-3-phenylisoxazole-4-carboxamide] | α5-GABAAR Relative Efficacy (to DMCM), Qpatch ([2]; Conc 3 μM): −0.40
9 | 4.1 nM |  | −0.75 | COc1nc(-c2c[nH]c(=O)c(F)c2)cnc1NC(=O)c1c(-c2ccccc2)noc1C [Example 133, N-[5-(5-Fluoro-6-oxo-1H-pyridin-3-yl)-3-methoxy-pyrazin-2-yl]-5-methyl-3-phenyl-isoxazole-4-carboxamide] | 
10 | 1.3 nM | −0.92 |  | COc1nc(-c2cnc(C(=O)O)nc2)ccc1NC(=O)c1c(-c2ccccc2)noc1C [Example 60, 5-[6-Methoxy-5-[(5-methyl-3-phenyl-isoxazole-4-carbonyl)amino]-2-pyridyl]pyrimidine-2-carboxylic acid] | 
11 | 2.3 nM | −0.83 |  | COc1nc(-c2ccc(CO)nc2)ccc1NC(=O)c1c(-c2ccccc2)noc1C [Example 27, N-[6-[6-(Hydroxymethyl)-3-pyridyl]-2-methoxy-3-pyridyl]-5-methyl-3-phenyl-isoxazole-4-carboxamide] | 
12 | 15.8 nM |  |  | COc1nc(-c2c(C)nn(C)c2C)ccc1NC(=O)c1c(-c2ccccc2)noc1C [Example 22, N-[2-Methoxy-6-(1,3,5-trimethylpyrazol-4-yl)-3-pyridyl]-5-methyl-3-phenyl-isoxazole-4-carboxamide] | α5-GABAAR Relative Efficacy (to DMCM), Qpatch ([2]; Conc 3 μM): 0.15
13 | 8.2 nM |  | −0.73 | COc1nc(-c2cncnc2OC)ccc1NC(=O)c1c(-c2ccccc2)noc1C [Example 93, N-(2-Methoxy-6-(4-methoxypyrimidin-5-yl)pyridin-3-yl)-5-methyl-3-phenyl-isoxazole-4-carboxamide] | 
14 | 1.9 nM | −0.90 |  | COc1nc(-n2cnc(C#N)c2)ccc1NC(=O)c1c(-c2ccccc2)noc1C [Example 139, N-[6-(4-Cyanoimidazol-1-yl)-2-methoxy-3-pyridyl]-5-methyl-3-phenyl-isoxazole-4-carboxamide] | 
15 | 0.5 nM |  |  | COc1nc(-c2cnc(NC3CNC3)nc2)ccc1NC(=O)c1c(-c2ccccc2)noc1C [Example 188, N-[6-[2-(Azetidin-3-ylamino)pyrimidin-5-yl]-2-methoxy-3-pyridyl]-5-methyl-3-phenyl-isoxazole-4-carboxamide] | α5-GABAAR Relative Efficacy (to DMCM), Qpatch ([2]; Conc 0.1 μM): −1.08
16 | 5.1 nM |  | −0.42 | COc1nc(-c2cccc3nccn23)ccc1NC(=O)c1c(-c2ccccc2)noc1C [Example 30, N-(6-Imidazo[1,2-a]pyridin-5-yl-2-methoxy-3-pyridyl)-5-methyl-3-phenyl-isoxazole-4-carboxamide] | 
17 | 2.9 nM | −0.84 |  | COc1nc(-c2cncc(N)c2)ccc1NC(=O)c1c(-c2ccccc2)noc1C [Example 11, N-[6-(5-Amino-3-pyridyl)-2-methoxy-3-pyridyl]-5-methyl-3-phenyl-isoxazole-4-carboxamide] | 

Row | SMILES | Ki [1] | α5-GABAAR Relative Efficacy (to DMCM), Qpatch ([2]; Conc 0.3 μM) | α5-GABAAR Relative Efficacy (to DMCM), Qpatch ([2]; Conc 1 μM) | further results
18 | COc1nc(-c2ccn3nc(N(C)C)nc3c2)ccc1NC(=O)c1c(-c2ccccc2)noc1C.Cl [Example 131, N-[6-[2-(Dimethylamino)-[1,2,4]triazolo[1,5-a]pyridin-7-yl]-2-methoxy-3-pyridyl]-5-methyl-3-phenyl-isoxazole-4-carboxamide hydrochloride] | 9.8 nM |  | −0.67 | 
19 | Cc1onc(-c2ccc(F)cc2)c1C(=O)Nc1ccc(-c2cnc(CN)nc2)nc1OC(C)C.Cl [Example 205, N-(6-(2-(Aminomethyl)pyrimidin-5-yl)-2-isopropoxypyridin-3-yl)-3-(4-fluorophenyl)-5-methylisoxazole-4-carboxamide hydrochloride] | 0.4 nM |  |  | α5-GABAAR Relative Efficacy (to DMCM), Qpatch ([2]; Conc 0.1 μM): −0.61
20 | COc1nc(-c2cnc3n2CCNC3)ccc1NC(=O)c1c(-c2ccccc2)noc1C.Cl [Example 138, N-(2-Methoxy-6-(5,6,7,8-tetrahydroimidazo[1,2-a]pyrazin-3-yl)pyridin-3-yl)-5-methyl-3-phenylisoxazole-4-carboxamide hydrochloride] | 3.2 nM |  | −0.62 | 
21 | COc1nc(-c2cnc(CN)nc2)ccc1NC(=O)c1c(-c2ccc(F)cc2)nnn1C.Cl [Example 184, N-(6-(2-(Aminomethyl)pyrimidin-5-yl)-2-methoxypyridin-3-yl)-4-(4-fluorophenyl)-1-methyl-1H-1,2,3-triazole-5-carboxamide hydrochloride] | 1.5 nM | −0.45 |  | 
